{"source": "the NIST ThermoML archive (doi:10.1016/j.jct.2015.11.013)", "test": "cn = amount concentration of the nth substance listed, in mol/dm3", "settings": "298.15 K, 101.3 kPa, Liquid, Taylor dispersion method", "note": "Where “and” joins values, the source holds several entries; their conditions need not be identical. Equal entries are not always repeated."}
{"smiles": "CCCCCCCC(=O)O", "note": "[octanoic acid] + O", "values": [{"measurement": "binary diffusion coefficient", "setting": "c1 = 0.00075", "result": "1.19e-09", "unit": "m2/s"}, {"measurement": "binary diffusion coefficient", "setting": "c1 = 0.001", "result": "1.08e-09", "unit": "m2/s"}, {"measurement": "binary diffusion coefficient", "setting": "c1 = 0.0015", "result": "9.5e-10", "unit": "m2/s"}, {"measurement": "binary diffusion coefficient", "setting": "c1 = 0.002", "result": "8.72e-10", "unit": "m2/s"}, {"measurement": "binary diffusion coefficient", "setting": "c1 = 0.0025", "result": "8.49e-10 m2/s and 8.5e-10 m2/s"}]}
{"smiles": "CCCCCCCC(=O)[O-].[Na+]", "note": "[sodium octanoate] + O", "values": [{"measurement": "binary diffusion coefficient", "setting": "c1 = 0.025", "result": "8.56e-10", "unit": "m2/s"}, {"measurement": "binary diffusion coefficient", "setting": "c1 = 0.05", "result": "8.54e-10", "unit": "m2/s"}, {"measurement": "binary diffusion coefficient", "setting": "c1 = 0.075", "result": "8.52e-10", "unit": "m2/s"}, {"measurement": "binary diffusion coefficient", "setting": "c1 = 0.085", "result": "8.51e-10", "unit": "m2/s"}, {"measurement": "binary diffusion coefficient", "setting": "c1 = 0.1", "result": "8.5e-10", "unit": "m2/s"}]}
{"smiles": "OC[C@H]1O[C@@H]2O[C@H]3[C@H](O)[C@@H](O)[C@@H](O[C@H]4[C@H](O)[C@@H](O)[C@@H](O[C@H]5[C@H](O)[C@@H](O)[C@@H](O[C@H]6[C@H](O)[C@@H](O)[C@@H](O[C@H]7[C@H](O)[C@@H](O)[C@@H](O[C@H]1[C@H](O)[C@H]2O)O[C@@H]7CO)O[C@@H]6CO)O[C@@H]5CO)O[C@@H]4CO)O[C@@H]3CO", "note": "[α-cyclodextrin] + O", "values": [{"measurement": "binary diffusion coefficient", "setting": "c1 = 0.0025", "result": "3.53e-10", "unit": "m2/s"}]}
